Structures can show the parent of a compound that is named as a salt.

In general, IC50 refers to the concentration needed to halve the response being measured.

Assay [1] concerns Phosphorylated Ribosomal Protein S6 (RPS6) in THP-1 cells. The assay can be described thus: THP-1 RPS6 ELISA assay. The format is cell-based, human. Conditions: Homo sapiens, THP-1, THP-1 cells, 10 nM MCP-1; read-out: PI3Kγ_THP1_RPS6_ELISA IC50.
Assay [2] has as its target PI3Kδ (p110δ/p85α) Recombinant Human Protein (Homo sapiens (Human), UniProt O00329). The assay can be described thus: PI3Kδ scintillation proximity assay. In kind it is biochemical. Conditions: 2 μM ATP, 20 μM PIP2. Background: In a scintillation proximity assay essentially only radioactivity close to the scintillant gives light.
Assay [3] deals with PI3Kγ (p110γ) Recombinant Human Protein (Homo sapiens (Human), UniProt P48736). Nature of the assay: PI3K-γ scintillation proximity assay. The format is biochemical. To be noted: 2 μM ATP, 20 μM PIP2.
Chain of PI3Kγ (p110γ) Recombinant Human Protein (P48736 whole entry): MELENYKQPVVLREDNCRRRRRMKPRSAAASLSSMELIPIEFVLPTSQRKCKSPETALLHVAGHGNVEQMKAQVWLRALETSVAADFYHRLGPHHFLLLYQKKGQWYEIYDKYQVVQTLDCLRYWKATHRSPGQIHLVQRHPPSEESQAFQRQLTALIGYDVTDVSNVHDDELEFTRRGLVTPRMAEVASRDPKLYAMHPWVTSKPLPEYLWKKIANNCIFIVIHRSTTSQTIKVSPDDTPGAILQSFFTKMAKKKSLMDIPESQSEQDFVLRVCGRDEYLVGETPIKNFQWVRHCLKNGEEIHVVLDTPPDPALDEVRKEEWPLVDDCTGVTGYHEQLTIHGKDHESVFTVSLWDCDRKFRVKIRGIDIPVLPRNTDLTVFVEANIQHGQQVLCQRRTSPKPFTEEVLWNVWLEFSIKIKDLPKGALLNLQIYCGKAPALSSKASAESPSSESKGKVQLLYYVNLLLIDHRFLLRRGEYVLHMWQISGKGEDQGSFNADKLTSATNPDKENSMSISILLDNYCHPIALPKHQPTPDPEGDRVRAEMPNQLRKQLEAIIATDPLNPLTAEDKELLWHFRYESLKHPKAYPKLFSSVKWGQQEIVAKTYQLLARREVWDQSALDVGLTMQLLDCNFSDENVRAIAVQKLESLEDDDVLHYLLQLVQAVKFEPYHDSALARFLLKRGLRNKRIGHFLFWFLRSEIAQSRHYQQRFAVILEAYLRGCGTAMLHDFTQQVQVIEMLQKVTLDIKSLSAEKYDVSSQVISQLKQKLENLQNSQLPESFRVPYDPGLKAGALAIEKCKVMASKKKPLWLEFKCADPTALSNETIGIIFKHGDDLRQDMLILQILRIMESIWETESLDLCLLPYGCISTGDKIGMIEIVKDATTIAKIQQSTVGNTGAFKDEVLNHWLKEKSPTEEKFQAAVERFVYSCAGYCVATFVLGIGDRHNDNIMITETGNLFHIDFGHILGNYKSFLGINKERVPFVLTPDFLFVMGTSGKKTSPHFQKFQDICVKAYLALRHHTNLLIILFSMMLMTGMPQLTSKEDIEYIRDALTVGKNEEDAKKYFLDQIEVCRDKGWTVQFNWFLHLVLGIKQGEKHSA

Chain of PI3Kδ (p110δ/p85α) Recombinant Human Protein (O00329 whole entry): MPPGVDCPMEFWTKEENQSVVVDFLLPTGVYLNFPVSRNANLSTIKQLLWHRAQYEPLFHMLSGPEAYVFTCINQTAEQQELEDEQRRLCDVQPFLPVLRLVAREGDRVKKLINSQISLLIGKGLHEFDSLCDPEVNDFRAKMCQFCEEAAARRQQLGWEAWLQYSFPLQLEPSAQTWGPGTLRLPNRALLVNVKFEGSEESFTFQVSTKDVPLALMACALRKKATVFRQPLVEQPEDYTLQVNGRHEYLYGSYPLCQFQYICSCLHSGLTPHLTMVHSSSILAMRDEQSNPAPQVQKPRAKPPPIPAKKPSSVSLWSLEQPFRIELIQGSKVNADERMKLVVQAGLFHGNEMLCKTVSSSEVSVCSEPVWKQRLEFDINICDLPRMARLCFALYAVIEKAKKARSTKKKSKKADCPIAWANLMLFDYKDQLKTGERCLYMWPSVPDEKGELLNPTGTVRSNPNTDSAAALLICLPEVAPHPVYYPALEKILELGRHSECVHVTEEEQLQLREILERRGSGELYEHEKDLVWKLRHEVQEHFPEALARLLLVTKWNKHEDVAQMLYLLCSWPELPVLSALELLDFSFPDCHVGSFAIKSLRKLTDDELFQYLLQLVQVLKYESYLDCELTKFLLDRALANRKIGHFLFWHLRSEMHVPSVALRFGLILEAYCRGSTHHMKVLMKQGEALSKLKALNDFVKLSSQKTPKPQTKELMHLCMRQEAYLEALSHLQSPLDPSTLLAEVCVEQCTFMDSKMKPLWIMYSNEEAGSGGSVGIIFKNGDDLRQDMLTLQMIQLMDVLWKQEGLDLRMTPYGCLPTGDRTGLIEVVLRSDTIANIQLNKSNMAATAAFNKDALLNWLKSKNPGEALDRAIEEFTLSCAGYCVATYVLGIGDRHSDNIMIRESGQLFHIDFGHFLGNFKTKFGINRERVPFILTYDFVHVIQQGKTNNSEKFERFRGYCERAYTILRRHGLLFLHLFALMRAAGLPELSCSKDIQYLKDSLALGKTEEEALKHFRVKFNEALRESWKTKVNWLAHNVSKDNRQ
Chain of PI3Kδ (p110δ/p85α) Recombinant Human Protein (P27986 whole entry partner): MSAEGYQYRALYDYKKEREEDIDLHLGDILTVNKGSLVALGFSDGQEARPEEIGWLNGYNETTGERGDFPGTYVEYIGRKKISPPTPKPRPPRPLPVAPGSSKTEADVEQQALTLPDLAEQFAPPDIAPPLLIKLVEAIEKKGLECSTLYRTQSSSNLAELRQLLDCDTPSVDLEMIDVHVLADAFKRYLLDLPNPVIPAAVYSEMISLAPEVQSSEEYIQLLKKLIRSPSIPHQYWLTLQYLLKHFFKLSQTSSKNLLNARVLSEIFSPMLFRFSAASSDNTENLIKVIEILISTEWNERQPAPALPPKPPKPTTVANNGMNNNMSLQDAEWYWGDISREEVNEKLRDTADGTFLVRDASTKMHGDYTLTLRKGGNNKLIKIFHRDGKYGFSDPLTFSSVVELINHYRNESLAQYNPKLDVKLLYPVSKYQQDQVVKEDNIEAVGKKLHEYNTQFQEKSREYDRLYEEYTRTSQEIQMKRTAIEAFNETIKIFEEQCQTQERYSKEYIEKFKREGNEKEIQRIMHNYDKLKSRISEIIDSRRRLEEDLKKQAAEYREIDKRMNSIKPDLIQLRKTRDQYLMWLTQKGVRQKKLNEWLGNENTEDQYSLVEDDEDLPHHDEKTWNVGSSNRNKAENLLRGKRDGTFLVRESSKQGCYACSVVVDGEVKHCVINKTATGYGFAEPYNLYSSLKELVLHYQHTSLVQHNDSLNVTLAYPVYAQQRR

Take `CCOc1c(C(C)NC(=O)c2c(N)nn3cccnc23)cc(Cl)c2cnn(C)c12` (stereo not drawn): the IC50 in assay [1] is below 500 nM.

In the case of `CC(NC(=O)c1c(N)nn2cccnc12)c1cc(Cl)c2cncn2c1N1CCC(C#N)C1` (racemic) [Example 32, 2-Amino-N-(1-(8-chloro-5-(3-cyanopyrrolidin-1-yl)imidazo[1,5-a]pyridin-6-yl)ethyl)pyrazolo[1,5-a]pyrimidine-3-carboxamide trifluoroacetate salt], the IC50 in assay [2] is below 100 nM; in assay [1] it was below 500 nM; in assay [3], below 100 nM.

Consider `CC(NC(=O)c1c(N)nn2cccnc12)c1cc(Cl)c2cncn2c1N1C[C@H](O)[C@@H](F)C1` (mixture of isomers) [Example 35, 2-Amino-N-(1-(8-chloro-5-((3S,4S)-3-fluoro-4-hydroxypyrrolidin-1-yl)imidazo[1,5-a]pyridin-6-yl)ethyl)pyrazolo[1,5-a]pyrimidine-3-carboxamide trifluoroacetate salt], for which the concentration for half-maximal inhibition (IC50) in assay [2] is below 100 nM; in assay [1], below 500 nM; in assay [3], below 100 nM.

Consider `CC(NC(=O)c1c(N)nn2cccnc12)c1cc(Cl)c2cn[nH]c2c1N1CCC(O)C1` (racemic) [Example 90A, 2-Amino-N-{1-[4-chloro-7-(3-hydroxypyrrolidin-1-yl)-2H-indazol-6-yl]ethyl}pyrazolo[1,5-a]pyrimidine-3-carboxamide bis(trifluoroacetate)], for which the 50% inhibitory concentration (IC50) in assay [2] was below 500 nM; in assay [1], below 500 nM; in assay [3], below 100 nM.

As for `Cc1ncc2c(Cl)cc(C(C)NC(=O)c3c(N)nn4cccnc34)c(-c3cn[nH]c3)n12` (racemic) [Example 118, 2-Amino-N-{1-[8-chloro-3-methyl-5-(1H-pyrazol-4-yl)imidazo[1,5-a]pyridin-6-yl]ethyl}pyrazolo[1,5-a]pyrimidine-3-carboxamide trifluoroacetate salt], the IC50 is below 100 nM in assay [2], below 500 nM in assay [1] and below 100 nM in assay [3].

On to `Cc1ncc2c(Cl)cc(C(C)NC(=O)c3c(N)nn4cccnc34)c(-c3cnn(C)c3)n12` (racemic) [Example 119, 2-Amino-N-{1-[8-chloro-3-methyl-5-(1-methyl-1H-pyrazol-4-yl)imidazo[1,5-a]pyridin-6-yl]ethyl}pyrazolo[1,5-a]pyrimidine-3-carboxamide trifluoroacetate salt], for which the IC50 in assay [2] was below 500 nM; in assay [1] it was below 500 nM; in assay [3], below 100 nM.

Take `Cc1ncc2c(Cl)cc(C(C)NC(=O)c3c(N)nn4cccnc34)c(-c3cccnc3)n12` (racemic) [Example 120, 2-Amino-N-[1-(8-chloro-3-methyl-5-pyridin-3-ylimidazo[1,5-a]pyridin-6-yl)ethyl]pyrazolo[1,5-a]pyrimidine-3-carboxamide trifluoroacetate salt]: the IC50 in assay [2] is below 100 nM; in assay [1], below 500 nM; in assay [3], below 100 nM.

For the compound `Cc1ncc2c(Cl)cc(C(C)NC(=O)c3c(N)nn4cccnc34)c(-c3ccccc3)n12` (racemic) [Example 121, 2-Amino-N-[1-(8-chloro-3-methyl-5-phenylimidazo[1,5-a]pyridin-6-yl)ethyl]pyrazolo[1,5-a]pyrimidine-3-carboxamide trifluoroacetate salt], the IC50 in assay [2] is below 500 nM; in assay [1], below 500 nM; in assay [3] it was below 100 nM.

Turning to `Cc1nc(Cl)c2c(Cl)cc(C(C)NC(=O)c3c(N)nn4cccnc34)c(-c3cn[nH]c3)n12` (racemic) [Example 122, 2-Amino-N-{1-[1,8-dichloro-3-methyl-5-(1H-pyrazol-4-yl)imidazo[1,5-a]pyridin-6-yl]ethyl}pyrazolo[1,5-a]pyrimidine-3-carboxamide trifluoroacetate salt], the values for the half-maximal inhibitory concentration (IC50) in assay [2], in assay [1] and in assay [3] were below 100 nM, below 500 nM and below 100 nM, respectively.

With `Cc1nc(F)c2c(Cl)cc(C(C)NC(=O)c3c(N)nn4cccnc34)c(-c3cn[nH]c3)n12` (racemic) [Example 123, 2-Amino-N-{1-[8-chloro-1-fluoro-3-methyl-5-(1H-pyrazol-4-yl)imidazo[1,5-a]pyridin-6-yl]ethyl}pyrazolo[1,5-a]pyrimidine-3-carboxamide trifluoroacetate salt], the IC50 in assay [2] was below 100 nM; in assay [1], below 500 nM; in assay [3], below 100 nM.

`Cc1nc(C(F)(F)F)c2c(Cl)cc(C(C)NC(=O)c3c(N)nn4cccnc34)c(-c3ccccc3)n12` (racemic) [Example 124, 2-Amino-N-{1-[8-chloro-3-methyl-5-phenyl-1-(trifluoromethyl)imidazo[1,5-a]pyridin-6-yl]ethyl}pyrazolo[1,5-a]pyrimidine-3-carboxamide trifluoroacetate salt]: the 50% inhibitory concentration (IC50) in assay [2] is at least 2000 nM; in assay [1], above 1000 nM; in assay [3], below 500 nM.

As to `Cc1nc(C#N)c2c(Cl)cc(C(C)NC(=O)c3c(N)nn4cccnc34)c(-c3ccccc3)n12` (racemic) [Example 125, 2-Amino-N-[1-(8-chloro-1-cyano-3-methyl-5-phenylimidazo[1,5-a]pyridin-6-yl)ethyl]pyrazolo[1,5-a]pyrimidine-3-carboxamide trifluoroacetate salt], the values for the IC50 in assay [2], in assay [1] and in assay [3] were below 500 nM, below 500 nM and below 100 nM, respectively.

Turning to `C#Cc1nc(C)n2c(-c3ccccc3)c(C(C)NC(=O)c3c(N)nn4cccnc34)cc(Cl)c12` (racemic) [Example 126, 2-Amino-N-[1-(8-chloro-1-ethynyl-3-methyl-5-phenylimidazo[1,5-a]pyridin-6-yl)ethyl]pyrazolo[1,5-a]pyrimidine-3-carboxamide], the half-inhibitory concentration (IC50) in assay [2] was below 2000 nM; in assay [1], below 500 nM; in assay [3] it was below 100 nM.

In the case of `CC(NC(=O)c1c(N)nn2cccnc12)c1cc(Cl)c2cncn2c1-c1cccnc1` (racemic) [Example 127, 2-Amino-N-[1-(8-chloro-5-pyridin-3-ylimidazo[1,5-a]pyridin-6-yl)ethyl]pyrazolo[1,5-a]pyrimidine-3-carboxamide trifluoroacetate salt], the IC50 is below 100 nM in assay [2], below 500 nM in assay [1] and below 100 nM in assay [3].

Take `CC(NC(=O)c1c(N)nn2cccnc12)c1cc(Cl)c2c(C#N)ncn2c1-c1cccnc1` (racemic) [Example 128, 2-Amino-N-[1-(8-chloro-1-cyano-5-pyridin-3-ylimidazo[1,5-a]pyridin-6-yl)ethyl]pyrazolo[1,5-a]pyrimidine-3-carboxamide trifluoroacetate salt]: the IC50 is below 2000 nM in assay [2], above 1000 nM in assay [1] and below 100 nM in assay [3].

For `Cc1ncn2c(-c3cccnc3)c(C(C)NC(=O)c3c(N)nn4cccnc34)cc(Cl)c12` (racemic) [Example 129, 2-Amino-N-[1-(8-chloro-1-methyl-5-pyridin-3-ylimidazo[1,5-a]pyridin-6-yl)ethyl]pyrazolo[1,5-a]pyrimidine-3-carboxamide trifluoroacetate salt], the figures for the 50% inhibitory concentration (IC50) in assay [2], in assay [1] and in assay [3] were below 2000 nM, below 1000 nM and below 100 nM, respectively.

As for `CC(NC(=O)c1c(N)nn2cccnc12)c1cc(Cl)c2cn[nH]c2c1-c1ccccc1` (stereo not drawn) [Example 14], the IC50 in assay [1] is below 1000 nM.

On to `CC(NC(=O)c1c(N)nn2cccnc12)c1cc(Cl)c2c(Br)n[nH]c2c1-c1ccccc1` (stereo not drawn) [Example 23], for which the half-maximal inhibitory concentration (IC50) in assay [1] is below 1000 nM.

As to `Cc1ncc2c(Cl)cc(C(C)NC(=O)c3c(N)nn4cccnc34)c(-c3cccc(F)c3)n12` (stereo not drawn) [Example 26], the IC50 in assay [1] was below 500 nM.

Turning to `CC(NC(=O)c1c(N)nn2cccnc12)c1cc(Cl)c2cn[nH]c2c1C1=CCN(C(=O)OCc2ccccc2)CC1` (stereo not drawn) [Example 98, Benzyl 4-[6-(1-{[(2-aminopyrazolo[1,5-a]pyrimidin-3-yl)carbonyl]amino}ethyl)-4-chloro-2H-indazol-7-yl]-3,6-dihydropyridine-1(2H)-carboxylate bis(trifluoroacetate)], the half-maximal inhibitory concentration (IC50) was below 2000 nM in assay [2] and below 500 nM in assay [3].

With `CC(NC(=O)c1c(N)nn2cccnc12)c1cc(Cl)c2cn[nH]c2c1C1=CCNCC1` (stereo not drawn) [Example 99, 2-Amino-N-{1-[4-chloro-7-(1,2,3,6-tetrahydropyridin-4-yl)-2H-indazol-6-yl]ethyl}pyrazolo[1,5-a]pyrimidine-3-carboxamide bis(trifluoroacetate)], the IC50 was below 100 nM in assay [2] and below 500 nM in assay [3].

Take `CC(NC(=O)c1c(N)nn2cccnc12)c1cc(Cl)c2cn[nH]c2c1N1CCC(C(=O)N(C)C)CC1` (stereo not drawn) [Example 108, 2-Amino-N-[1-(4-chloro-7-{4-[(dimethylamino)carbonyl]piperidin-1-yl}-2H-indazol-6-yl)ethyl]pyrazolo[1,5-a]pyrimidine-3-carboxamide trifluoroacetate]: the values for the IC50 in assay [2] and in assay [3] were below 500 nM and below 100 nM, respectively.

For `C[C@H](NC(=O)c1c(N)nn2cccnc12)c1cc(Cl)c2c(Cl)ncn2c1N1CCNS(=O)(=O)CC1` [Example 160, 2-Amino-N-{(1S)-1-[1,8-dichloro-5-(1,1-dioxido-1,2,5-thiadiazepan-5-yl)imidazo[1,5-a]pyridin-6-yl]ethyl}pyrazolo[1,5-a]pyrimidine-3-carboxamide trifluoroacetate salt], the half-maximal inhibitory concentration (IC50) in assay [2] and in assay [3] was below 100 nM each time.

For the compound `C[C@H](NC(=O)c1c(N)nn2cccnc12)c1cc(Cl)c2c(Cl)ncn2c1N1CCNC(=O)CC1` [Example 161, 2-Amino-N-{(1S)-1-[1,8-dichloro-5-(5-oxo-1,4-diazepan-1-yl)imidazo[1,5-a]pyridin-6-yl]ethyl} pyrazolo[1,5-a] pyrimidine-3-carboxamide trifluoroacetate salt], the half-maximal inhibitory concentration (IC50) in assay [2] and in assay [3] was below 100 nM in each case.

`CCCC(NC(=O)c1c(N)nn2cccnc12)c1cc(Cl)c2cncn2c1N1CCS(=O)(=O)CC1` (stereo not drawn) [Example 178, trifluoroacetate salt]: the half-inhibitory concentration (IC50) in assay [1] was below 500 nM.

The values above are taken from patent publication US10065963B2 (Incyte Corporation, priority 2015, dated 2018).
